Values of other authors as cited in patent US20040219231A1, “Production of concentrated biocidal solutions” (priority 2000, published 2004).

Experiments:
[1] = not given; remark: listed apart in the source

Structure (SMILES)	solubility in water	Vapor Pressure (25° C.) [1] [mm]
CC1(C)C(=O)N(Cl)C(=O)N1Br [BCDMH, 1,3-bromochloro-5,5-dimethylhydantoin]	around 0.15%	
BrBr [Bromine (Br2), Bromine]		214
ClBr [Bromine Chloride (BrCl), Bromine Chloride]		1800
